# Patent EP0432983A2 (priority 1989, dated 1991)
# What was measured:
# [1] = tested on: CV-1 (monkey kidney fibroblast cells); test: Toxicity throughout the CV-1 cell sheet (Table 3); type: cell-based
# Description: (§1) This test is performed according to standard procedures for determination of cytotoxicity of a compound againt virus infected cells. In the present case, CV-1 (monkey kidney fibroblast cells) are infected with HSV-1 and the compounds of the invention tested against these at varying concentrations.
# (§2) The numbers show the toxicity throughout the CV-1 cells sheet. (-) indicates no reduction in viral plaque production (+) indicates a 50% reduction in viral plaque production (++) indicates an 80% reduction in viral plaque production.
# HSV-1 [2] = test: Inhibition of HSV-1 replication (anti-viral effect), PFU determination; type: cell-based; settings: Human alphaherpesvirus 1; HSV-1 replication in CV-1 cells, 10 PFU per cell, 24 hours after infection
# Description: 16mm dia. wells are seeded each with 2 x 10⁵ CV-1 cells in 1ml aliquots of MEM10C. After three days, the cells are infected with HSV-1 at 10 PFU (Plaque Forming Units) per cell. The inoculum is replaced, after adsorption for 1.5 hours, in pairs of wells with 0. 5 ml aliquots of MEM5C containing the test concentrations of each of AH-1 and AH-2. Four hours from infection, the cells from two wells are scraped into the medium and frozen to -80°C. [The average of PFU/ml of these samples forms the base for calculating net virus production]. The remaining samples are collected in pairs of wells 24 hours after infection and are also frozen to -80°C. For determination of PFU/ml, each sample is diluted to 10⁻⁸.
# [3] = tested on: VSV (Vesicular Stomatitis Virus); type: cell-based
# HSV-1 [4] = test: Viral plaque reduction in HSV-1 infected CV-1 cells (Table 3); type: cell-based; set-up: key: (-) indicates no reduction in viral plaque production; (+) indicates a 50% reduction in viral plaque production; (++) indicates an 80% reduction in viral plaque production
# Description: as §1, §2
# [5] = tested on: L-1210 cells (mouse lymphoma); test: Activity against L-1210 cells; type: cell-based
# CV-1 cells = test: Inhibition of growth of CV-1 cells (cytotoxic effect); type: cell-based, monkey; settings: for inhibition of growth: CV-1 cells, 0.1, 0.5, 1, 5, 10 and 50 µg/ml; for IC50: Primates, 96 h, CV-1 cell growth, counted four days after seeding
# Description: CV-1 cells are seeded into 16 mm dia. wells at 10⁴ cells per well in 1ml aliquots of MEM10C. The following day, the medium is replaced with 0.5 ml aliquots of MEM10C containing the test concentrations of compounds AH-1 and AH-2, i. e. 0, 0.1, 0.5, 1, 5, 10 and 50 µg/ml. Determinations are all carried out in duplicate. Four days after seeding, the cells are trypsinised and counted. Percentage inhibition (%I) relative to the wells without test compound (i.e. the controls) is calculated and the IC₅₀ determined.
SMILES,toxicity throughout the CV-1 cells sheet ([1]; 5µl of 500µg/ml in MeOH/Acet),toxicity throughout the CV-1 cells sheet ([1]; 10µl of 500µg/ml in MeOH/Acet),toxicity throughout the CV-1 cells sheet ([1]; 20µl of 500µg/ml in MeOH/Acet),toxicity throughout the CV-1 cells sheet ([1]; 40µl of 500µg/ml in MeOH/Acet),IC50 (HSV-1 [2]) [µg/mL],activity against VSV [3],reduction in viral plaque production (HSV-1 [4]; 5µl of 500µg/ml in MeOH/Acet),reduction in viral plaque production (HSV-1 [4]; 10µl of 500µg/ml in MeOH/Acet),reduction in viral plaque production (HSV-1 [4]; 20µl of 500µg/ml in MeOH/Acet),reduction in viral plaque production (HSV-1 [4]; 40µl of 500µg/ml in MeOH/Acet),activity against L-1210 cells [5],inhibition of growth (CV-1 cells),IC50 (CV-1 cells) [µg/mL]
"Cc1c2c(c3c4c1C(C1OC1(C)C)CC(C)C4CCC3C)OCO2 (centres unmarked) [AH-1, Helioporin A]",0,0,0,0,4,no activity,-,-,+ ((+) indicates a 50% reduction in viral plaque production),++ ((++) indicates an 80% reduction in viral plaque production),no activity,no inhibition of growth,> 50
"Cc1cc2c(c3c1OCO3)C(C)CCC2C(C)CC(=O)CC(C)C (centres unmarked) [AH-2, Helioporin B]",0,0,0,0,1.6,no activity,-,-,+ ((+) indicates a 50% reduction in viral plaque production),++ ((++) indicates an 80% reduction in viral plaque production),no activity,no inhibition of growth,> 50
